According to patent US20030114666A1, “Antibacterial agents” (priority 2001, published 2003):
Converted amounts (≈) assume the structure as drawn. Structures can show the parent of a compound that is named as a salt. Where two headings read alike, the source gives them in different places.

Key:
E. coli B90 = test: Test A antibacterial assay, standard microtitration (MIC); format: cell-based; settings: Escherichia coli
Protocol: (§1) Test A-Antibacterial Assay
(§2) The compounds of the present invention were tested against an assortment of Gram-negative and Gram-positive organisms using standard microtitration techniques (Cohen, et al., Antimicrob. Agents Chemother., 1985;28:766; Heifetz, et al., Antimicrob. Agents Chemother:, 1974;6:124). […]

E. coli MC 4100 = test: as above; format: cell-based; settings: Escherichia coli
Protocol: as §1, §2

E. coli Tol C = test: as above; format: cell-based; settings: Escherichia coli, read-out: Minimum Inhibitory Concentrations E. coli Tol C
Protocol: as §1, §2

E. faecalis RB1 = test: as above; format: cell-based; settings: Enterococcus faecalis
Protocol: as §1, §2

S. pyogenes C203 = test: as above; format: cell-based; settings: Streptococcus pyogenes
Protocol: as §1, §2

E. coli gyrase = E. coli gyrase (Escherichia coli, UniProt P0AES4+P0AES6); test: biochemical; settings: supercoiling of relaxed pBR322, 30 minutes at 37° C.
S. aureus 29213 = test: Test A antibacterial assay, standard microtitration (MIC); format: cell-based
Protocol: as §1, §2

S. pyogenes = test: Test C in vivo activity, median protective dose in mice given lethal systemic infections; settings: PO, lethal systemic infection with S. pyogenes
N. gonorrhoeae 2637 = test: Test D cross resistance antibacterial assay (MIC); format: cell-based, Neisseria gonorrhoeae; settings: Neisseria gonorrhoeae, 2637; parent strain, derivative of MS11; read-out: Minimum Inhibitory Concentrations N. g. 2637
Protocol: (§3) Test D-Cross Resistance Antibacterial Assay
(§4) The compounds of the present invention were tested against an assortment of ciprofloxacin resistant E. coli and S. aureus organisms described below using standard microtitration techniques (Cohen, et al., Antimicrob. Agents Chemother., 1985;28:766; Heifetz, et al., Antimicrob. Agents Chemother., 1974;6:124). […].
N. gonorrhoeae 2637 (N.g. 2637) is a derivative of Neisseria gonorrhoeae MS11 containing a TAC-LAC recA to allow for control of homologous recombination [Tonjum T. et al. Molecular Microbiology 1995, 16, 451-64].

N. gonorrhoeae 2709 = test: Test D cross resistance antibacterial assay (MIC); format: cell-based, Neisseria gonorrhoeae; settings: for MIC: Neisseria gonorrhoeae, 2709, read-out: Minimum Inhibitory Concentrations N. g. 2709; for MIC fold increase N. g. 2709 (in parentheses): relative to MIC against N. g. 2637
Protocol: as §3, §4
N. gonorrhoeae 2709 (N.g. 2709): Isogenic to N. gonorrhoeae 2637 contains gyrA quinolone-resistant determining region (QRDR) mutations (S91F D95G).

N. gonorrhoeae 2693 = test: Test D cross resistance antibacterial assay (MIC); format: cell-based, Neisseria gonorrhoeae; settings: relative to MIC against N. g. 2637
Protocol: as §3, §4
N. gonorrhoeae 2693 (N.g. 2693): Isogenic to N. gonorrhoeae 2709 containing parC QRDR mutations [P88S and E91K].

S. aureus UC-76 = test: Test D cross resistance antibacterial assay (MIC); format: cell-based; settings: Staphylococcus aureus, UC76; wild type sensitive laboratory strain; read-out: Minimum Inhibitory Concentrations S. aureus UC-76
Protocol: as §3, §4
S. aureus UC-76: Typical sensitive laboratory strain (Wild type).

S. aureus 2552 = test: Test D cross resistance antibacterial assay (MIC); format: cell-based; settings: for MIC: Staphylococcus aureus, 2552, upregulated norA pump, read-out: Minimum Inhibitory Concentrations S. aureus 2552; for MIC fold increase S. aureus 2552 (in parentheses): relative to MIC against S. aureus UC-76
Protocol: as §3, §4

S. aureus 2554 = test: Test D cross resistance antibacterial assay (MIC); format: cell-based; settings: relative to MIC against S. aureus UC-76
Protocol: as §3, §4
S. aureus 2554: Isogenic to S. aureus 2552, with point mutation at position 80 of grlA subunit.

S. aureus 2558 = test: Test D cross resistance antibacterial assay (MIC); format: cell-based; settings: relative to MIC against S. aureus UC-76
Protocol: as §3, §4
S. aureus 2558: Isogenic to S. aureus 2554, with point mutation at position 84 of gyrA subunit.

[1] = Gram negative, E. coli B90, read-out: Minimum Inhibitory Concentrations E. coli B90
[2] = MC4100, Gram negative, E. coli MC 4100, read-out: Minimum Inhibitory Concentrations E. coli MC 4100
[3] = Gram positive, E. faecalis RB1, read-out: Minimum Inhibitory Concentrations E. faecalis RB1
[4] = Gram positive, S. pyogenes C203, read-out: Minimum Inhibitory Concentrations S. pyogenes C203

E. coli gyrase, sequence (P0AES4 whole entry, one chain of several): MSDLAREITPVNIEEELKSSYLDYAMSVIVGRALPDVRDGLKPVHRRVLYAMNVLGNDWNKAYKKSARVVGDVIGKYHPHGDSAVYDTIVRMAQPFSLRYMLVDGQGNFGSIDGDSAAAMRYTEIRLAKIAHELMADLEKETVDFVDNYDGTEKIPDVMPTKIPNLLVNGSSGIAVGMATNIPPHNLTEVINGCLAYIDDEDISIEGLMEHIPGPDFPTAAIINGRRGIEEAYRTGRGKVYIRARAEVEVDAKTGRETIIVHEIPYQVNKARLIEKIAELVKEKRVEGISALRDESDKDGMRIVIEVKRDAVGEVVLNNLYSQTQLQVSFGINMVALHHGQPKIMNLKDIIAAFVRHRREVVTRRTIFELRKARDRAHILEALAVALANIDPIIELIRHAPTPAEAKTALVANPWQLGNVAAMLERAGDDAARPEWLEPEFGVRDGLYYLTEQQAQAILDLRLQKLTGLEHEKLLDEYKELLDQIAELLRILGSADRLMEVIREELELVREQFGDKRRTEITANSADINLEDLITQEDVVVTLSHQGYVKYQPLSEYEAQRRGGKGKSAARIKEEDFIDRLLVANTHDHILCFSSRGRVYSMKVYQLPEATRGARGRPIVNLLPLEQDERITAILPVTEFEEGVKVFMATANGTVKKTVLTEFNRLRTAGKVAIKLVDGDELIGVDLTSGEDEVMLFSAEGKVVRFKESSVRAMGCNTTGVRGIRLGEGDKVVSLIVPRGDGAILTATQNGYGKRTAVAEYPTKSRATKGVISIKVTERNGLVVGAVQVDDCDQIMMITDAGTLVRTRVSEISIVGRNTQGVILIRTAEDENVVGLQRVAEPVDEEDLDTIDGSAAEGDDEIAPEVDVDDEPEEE

## CN[C@@H](C)[C@@H]1CCN(c2c(F)cc3c(=O)[nH]c(=O)n(C4CC4)c3c2OC)C1 [Example 3, 1-Cyclopropyl-6-fluoro-8-methoxy-7-[(R)-3-((S)-1-methylaminoethyl)pyrrolidin-1-yl]-1H-quinazolinedione]
E. coli B90; [1]
  MIC: 2 µg/mL (≈ 5.31 µM)
E. coli MC 4100; [2]
  MIC: 32 µg/mL (≈ 85 µM)
E. coli Tol C
  MIC: 0.5 µg/mL (≈ 1.33 µM)
E. faecalis RB1; [3]
  MIC: 2 µg/mL (≈ 5.31 µM)
S. pyogenes C203; [4]
  MIC: 0.13 µg/mL (≈ 0.345 µM)
E. coli gyrase
  IC50: 7000 nM
other
  melting point: 162 to 164 °C

## Cc1c(N2CC[C@@H]([C@H](C)N)C2)c(F)cc2c(=O)[nH]c(=O)n(C3CC3)c12 [Example 4b, 7-[(R)-3-((S)-1-Aminoethyl)pyrrolidin-1-yl]-1-cyclopropyl-6-fluoro-8-methyl-1H-quinazolinedione Hydrochloride]
E. coli B90; B90, read-out: Minimum Inhibitory Concentrations E. coli B90
  MIC: 0.13 µg/mL
E. coli MC 4100; MC4100, read-out: Minimum Inhibitory Concentrations E. coli MC 4100
  MIC: 4 µg/mL
E. coli Tol C
  MIC: 0.13 µg/mL
E. faecalis RB1; RB1, read-out: Minimum Inhibitory Concentrations E. faecalis RB1
  MIC: 0.13 µg/mL
S. aureus 29213; Staphylococcus aureus, 29213, read-out: Minimum Inhibitory Concentrations S. aureus 29213
  MIC: 0.25 µg/mL
S. pyogenes C203; C203, read-out: Minimum Inhibitory Concentrations S. pyogenes C203
  MIC: 0.015 µg/mL
E. coli gyrase
  IC50: 600 nM
S. pyogenes
  PD50: 3.6 mg/kg
N. gonorrhoeae 2637
  MIC: 0.25 µg/mL
N. gonorrhoeae 2709
  MIC: 2 µg/mL
  MIC fold increase N. g. 2709 (in parentheses): (8x)
N. gonorrhoeae 2693
  MIC fold increase N. g. 2693 (in parentheses): (8x)
S. aureus UC-76
  MIC: 0.13 µg/mL
S. aureus 2552
  MIC: 0.5 µg/mL
  MIC fold increase S. aureus 2552 (in parentheses): (4x)
S. aureus 2554
  MIC fold increase S. aureus 2554 (in parentheses): (2x)
S. aureus 2558
  MIC fold increase S. aureus 2558 (in parentheses): (8x)

## CN[C@@H](C)[C@@H]1CCN(c2c(F)cc3c(=O)[nH]c(=O)n(C4CC4)c3c2C)C1 [Example 2, 1-Cyclopropyl-6-fluoro-8-methyl-7-[(R)-3-((S)-1-methylaminoethyl)pyrrolidin-1-yl]-1H-quinazolinedione]
E. coli B90; [1]
  MIC: 0.5 µg/mL (≈ 1.39 µM)
E. coli MC 4100; [2]
  MIC: 8 µg/mL (≈ 22.2 µM)
E. coli Tol C
  MIC: 0.25 µg/mL (≈ 0.694 µM)
E. faecalis RB1; [3]
  MIC: 0.25 µg/mL (≈ 0.694 µM)
S. aureus 29213; Staphylococcus aureus, Gram positive, S. aureus 29213, read-out: Minimum Inhibitory Concentrations S. aureus 29213
  MIC: 0.5 µg/mL (≈ 1.39 µM)
S. pyogenes C203; [4]
  MIC: 0.03 µg/mL (≈ 0.0832 µM)
E. coli gyrase
  IC50: 2100 nM
S. pyogenes
  PD50: 10.8 mg/kg
N. gonorrhoeae 2637
  MIC: 0.5 µg/mL
N. gonorrhoeae 2709
  MIC: 4 µg/mL (≈ 11.1 µM)
  MIC fold increase N. g. 2709 (in parentheses): (8x)
N. gonorrhoeae 2693
  MIC fold increase N. g. 2693 (in parentheses): (16x)
S. aureus UC-76
  MIC: 0.25 µg/mL (≈ 0.694 µM)
S. aureus 2552
  MIC: 0.5 µg/mL (≈ 1.39 µM)
  MIC fold increase S. aureus 2552 (in parentheses): (2x)
S. aureus 2554
  MIC fold increase S. aureus 2554 (in parentheses): (2x)
S. aureus 2558
  MIC fold increase S. aureus 2558 (in parentheses): (4x)
